{"source": "ChEMBL document CHEMBL1201862", "about": "“PubChem BioAssay data set” (2004)", "key": {"[1]": {"test": "HEK293 Cytotoxicity Assay Measured in Cell-Based System Using Plate Reader - 7071-01_Inhibitor_Dose_CherryPick_Activity_Set2.", "assay_type": "functional"}, "HEK293": {"test_system": "HEK293", "test": "viability loss in HEK293T cells – cell-based, ATP luminescence, cherry-pick samples, cytotoxicity control, dose response (AID 687005);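 also: cells exposed to compound for 48 hours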", "assay_type": "functional", "conditions": "Homo sapiens"}, "Paired box protein Pax-8": {"biological_target": "Paired box protein Pax-8 (Homo sapiens, UniProt Q06710)", "sequence (Q06710 whole entry)": "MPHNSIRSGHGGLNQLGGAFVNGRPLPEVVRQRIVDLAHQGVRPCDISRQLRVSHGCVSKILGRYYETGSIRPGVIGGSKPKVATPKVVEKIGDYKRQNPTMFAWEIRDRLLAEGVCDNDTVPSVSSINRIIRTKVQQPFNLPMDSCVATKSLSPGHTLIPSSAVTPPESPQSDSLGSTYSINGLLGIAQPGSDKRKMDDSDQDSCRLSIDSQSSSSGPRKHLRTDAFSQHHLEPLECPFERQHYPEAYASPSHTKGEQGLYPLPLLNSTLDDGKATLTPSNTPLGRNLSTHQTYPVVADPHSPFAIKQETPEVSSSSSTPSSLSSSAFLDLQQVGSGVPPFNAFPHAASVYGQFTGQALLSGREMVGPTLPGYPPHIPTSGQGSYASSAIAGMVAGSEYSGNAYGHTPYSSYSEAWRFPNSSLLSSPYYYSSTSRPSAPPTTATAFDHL", "test": "PAX8 transcriptional activity inhibition in RMG-I – RMG-I cells, luciferase, cherry-pick, dose response (AID 687027);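 also: luciferase reporter driven by Pax8 target thyroperoxidase promoter measured by SteadyGlo luminescence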", "assay_type": "functional, cell-based"}, "[2]": {"test": "PAX8-dependent cell viability loss – plate reader, dry powder, dose response (AID 743049)", "assay_type": "functional, cell-based"}, "[3]": {"test": "inhibitors acting on PAX2 in cells – cell-based, plate reader, dry powder samples, selectivity assay for PAX8 inhibitor project, dose response (AID 743048);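 also: HEK293 cells carrying a WT1 promoter luciferase reporter driven by expressed Pax2; potency is for inhibition of Pax2 driven reporter signal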", "assay_type": "functional"}, "[4]": {"biological_target": "Metabotropic glutamate receptor 3 (Rattus norvegicus, UniProt P31422)", "sequence (P31422 whole entry)": "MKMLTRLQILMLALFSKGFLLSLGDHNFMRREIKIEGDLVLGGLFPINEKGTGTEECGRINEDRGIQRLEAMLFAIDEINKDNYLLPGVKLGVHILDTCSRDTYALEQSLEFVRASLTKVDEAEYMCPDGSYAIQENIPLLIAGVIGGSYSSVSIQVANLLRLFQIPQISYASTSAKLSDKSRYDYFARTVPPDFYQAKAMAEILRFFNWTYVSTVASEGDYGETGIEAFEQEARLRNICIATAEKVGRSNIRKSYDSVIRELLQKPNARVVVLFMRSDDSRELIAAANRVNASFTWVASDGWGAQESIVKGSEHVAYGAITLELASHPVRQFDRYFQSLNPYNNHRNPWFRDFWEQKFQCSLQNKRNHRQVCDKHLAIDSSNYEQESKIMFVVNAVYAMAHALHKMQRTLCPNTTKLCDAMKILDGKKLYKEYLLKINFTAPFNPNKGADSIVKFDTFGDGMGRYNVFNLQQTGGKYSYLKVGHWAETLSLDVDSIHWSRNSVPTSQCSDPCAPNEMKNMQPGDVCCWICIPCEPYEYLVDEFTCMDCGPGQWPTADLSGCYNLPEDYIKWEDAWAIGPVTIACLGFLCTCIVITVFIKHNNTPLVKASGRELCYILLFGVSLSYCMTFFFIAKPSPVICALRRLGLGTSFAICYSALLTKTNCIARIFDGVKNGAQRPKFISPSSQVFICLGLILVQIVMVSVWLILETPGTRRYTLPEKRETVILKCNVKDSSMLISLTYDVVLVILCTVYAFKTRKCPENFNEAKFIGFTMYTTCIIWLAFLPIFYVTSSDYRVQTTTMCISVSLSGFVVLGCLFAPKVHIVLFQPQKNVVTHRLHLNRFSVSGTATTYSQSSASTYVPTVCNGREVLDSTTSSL", "test": "inhibitors of rat mGlu3 Galpha15 signaling – TREx293 cells, calcium flux, mGlu3 NAM project, dose response (AID 651840)", "assay_type": "functional"}, "Protein Wnt-3a": {"biological_target": "Protein Wnt-3a (Mus musculus, UniProt P27467)", "sequence (P27467 whole entry)": "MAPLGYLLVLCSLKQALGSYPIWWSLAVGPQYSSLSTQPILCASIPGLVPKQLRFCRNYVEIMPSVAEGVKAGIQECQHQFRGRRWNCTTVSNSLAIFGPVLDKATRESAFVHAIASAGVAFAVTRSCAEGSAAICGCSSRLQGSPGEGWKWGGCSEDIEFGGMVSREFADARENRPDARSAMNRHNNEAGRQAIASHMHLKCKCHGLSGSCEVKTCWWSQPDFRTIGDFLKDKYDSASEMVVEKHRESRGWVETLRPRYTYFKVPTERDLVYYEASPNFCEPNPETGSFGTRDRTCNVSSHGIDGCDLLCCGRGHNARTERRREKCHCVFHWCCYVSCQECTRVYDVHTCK", "test": "SAR analysis of small molecule antagonists of Gli-SUFU in a Wnt3a luminescent reporter assay.", "assay_type": "functional"}, "[5]": {"biological_target": "Kappa-type opioid receptor (Homo sapiens, UniProt P41145)", "sequence (P41145 whole entry)": "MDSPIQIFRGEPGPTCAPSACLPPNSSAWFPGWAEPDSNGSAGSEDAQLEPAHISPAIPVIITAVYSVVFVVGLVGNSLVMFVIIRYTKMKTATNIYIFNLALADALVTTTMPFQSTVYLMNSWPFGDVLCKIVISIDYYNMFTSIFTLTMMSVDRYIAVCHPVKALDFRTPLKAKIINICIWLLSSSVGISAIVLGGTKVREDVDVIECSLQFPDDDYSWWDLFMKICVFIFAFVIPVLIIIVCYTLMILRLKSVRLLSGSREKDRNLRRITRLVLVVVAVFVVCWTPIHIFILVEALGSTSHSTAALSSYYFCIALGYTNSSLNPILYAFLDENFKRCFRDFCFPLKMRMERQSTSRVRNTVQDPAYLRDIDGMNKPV", "test": "kappa opioid receptor antagonism potency – cell-based, fluorescence, dose response, late-stage follow-up (AID 652032)", "assay_type": "functional"}, "[6]": {"biological_target": "Potassium channel subfamily K member 9 (Homo sapiens, UniProt Q9NPC2)", "sequence (Q9NPC2 whole entry)": "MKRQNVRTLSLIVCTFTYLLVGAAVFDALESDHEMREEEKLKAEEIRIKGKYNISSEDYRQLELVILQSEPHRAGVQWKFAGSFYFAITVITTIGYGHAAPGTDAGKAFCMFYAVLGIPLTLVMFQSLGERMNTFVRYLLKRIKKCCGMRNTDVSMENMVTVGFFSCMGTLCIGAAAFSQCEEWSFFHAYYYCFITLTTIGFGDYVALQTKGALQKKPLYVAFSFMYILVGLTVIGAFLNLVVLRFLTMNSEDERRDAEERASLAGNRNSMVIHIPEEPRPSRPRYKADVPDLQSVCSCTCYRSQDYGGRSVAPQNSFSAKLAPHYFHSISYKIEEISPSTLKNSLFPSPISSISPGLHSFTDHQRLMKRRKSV", "test": "KCNK9 flux blockade, concentration-response – cell-based, FluxOR thallium flux, selectivity assay for TASK1 inhibitor project, SAR follow-up (AID 652211)", "assay_type": "functional"}, "[7]": {"biological_target": "Potassium channel subfamily K member 3 (Homo sapiens, UniProt O14649)", "sequence (O14649 whole entry)": "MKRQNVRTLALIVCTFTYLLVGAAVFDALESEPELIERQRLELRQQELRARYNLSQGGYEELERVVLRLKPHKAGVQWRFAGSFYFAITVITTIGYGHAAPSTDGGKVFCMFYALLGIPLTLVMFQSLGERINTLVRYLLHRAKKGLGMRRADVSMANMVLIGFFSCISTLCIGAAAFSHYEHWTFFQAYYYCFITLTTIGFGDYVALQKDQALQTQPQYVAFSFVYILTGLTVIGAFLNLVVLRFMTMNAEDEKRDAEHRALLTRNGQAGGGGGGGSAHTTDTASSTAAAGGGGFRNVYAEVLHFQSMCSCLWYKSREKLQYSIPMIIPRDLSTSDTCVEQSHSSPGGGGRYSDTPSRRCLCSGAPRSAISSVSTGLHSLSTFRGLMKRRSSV", "test": "inhibition of human KCNK3 channel flux – CHO cells, FluxOR thallium flux, SAR follow-up (AID 652212)", "assay_type": "functional"}, "[8]": {"test": "liver cell line viability loss – HepG2, luminescence plate reader, powder samples, set 2, cytotoxicity control, dose response (AID 651860)", "assay_type": "functional, cell-based"}, "[9]": {"biological_target": "Endoplasmic reticulum aminopeptidase 1 (Homo sapiens, UniProt Q9NZ08)", "sequence (Q9NZ08 whole entry)": "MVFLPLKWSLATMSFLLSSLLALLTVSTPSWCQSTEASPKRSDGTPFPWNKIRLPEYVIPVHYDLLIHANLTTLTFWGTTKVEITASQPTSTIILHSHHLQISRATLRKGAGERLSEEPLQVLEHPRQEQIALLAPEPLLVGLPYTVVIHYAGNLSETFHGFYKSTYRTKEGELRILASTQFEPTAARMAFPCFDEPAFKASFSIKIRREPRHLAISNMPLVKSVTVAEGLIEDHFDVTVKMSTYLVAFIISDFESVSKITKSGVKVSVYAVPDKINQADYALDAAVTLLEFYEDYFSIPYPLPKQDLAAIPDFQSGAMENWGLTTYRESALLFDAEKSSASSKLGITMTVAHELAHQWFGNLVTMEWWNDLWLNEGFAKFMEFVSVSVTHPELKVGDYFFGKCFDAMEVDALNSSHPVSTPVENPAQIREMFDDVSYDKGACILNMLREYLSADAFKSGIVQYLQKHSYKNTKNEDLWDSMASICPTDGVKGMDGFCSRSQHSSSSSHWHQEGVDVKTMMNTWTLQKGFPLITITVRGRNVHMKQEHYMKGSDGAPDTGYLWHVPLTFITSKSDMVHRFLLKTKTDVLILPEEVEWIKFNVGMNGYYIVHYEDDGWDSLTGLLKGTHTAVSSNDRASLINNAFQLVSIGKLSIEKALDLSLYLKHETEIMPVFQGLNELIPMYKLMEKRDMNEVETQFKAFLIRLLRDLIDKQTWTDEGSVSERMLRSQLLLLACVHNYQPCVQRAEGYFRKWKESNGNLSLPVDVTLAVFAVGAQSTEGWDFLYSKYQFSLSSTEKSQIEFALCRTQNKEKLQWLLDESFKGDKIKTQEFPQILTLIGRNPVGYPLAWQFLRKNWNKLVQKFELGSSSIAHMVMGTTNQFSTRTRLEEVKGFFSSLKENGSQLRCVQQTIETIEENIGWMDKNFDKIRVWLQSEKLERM", "test": "inhibition of human ERAP1 enzyme activity – biochemical, cherry-pick, set 2, plate reader, dose response (AID 743314)"}, "[10]": {"biological_target": "Potassium channel subfamily K member 3 (Rattus norvegicus, UniProt O54912)", "sequence (O54912 whole entry, the tested form may be a part)": "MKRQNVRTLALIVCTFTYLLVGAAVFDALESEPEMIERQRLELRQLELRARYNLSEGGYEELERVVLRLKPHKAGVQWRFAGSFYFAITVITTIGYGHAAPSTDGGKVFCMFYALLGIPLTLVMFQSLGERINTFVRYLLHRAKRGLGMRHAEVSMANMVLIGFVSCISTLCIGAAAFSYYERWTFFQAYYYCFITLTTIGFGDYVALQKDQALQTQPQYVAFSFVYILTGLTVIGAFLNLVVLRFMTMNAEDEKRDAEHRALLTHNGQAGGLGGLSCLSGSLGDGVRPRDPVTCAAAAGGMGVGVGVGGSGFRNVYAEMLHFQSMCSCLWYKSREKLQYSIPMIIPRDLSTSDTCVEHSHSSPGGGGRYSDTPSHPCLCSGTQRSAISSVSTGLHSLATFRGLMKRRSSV", "test": "SAR analysis for the identification of selective inhibitors of the two-pore domain potassium channel TASK1(KCNK3):Automated Electrophysiology.", "assay_type": "functional"}, "[11]": {"test": "Late stage assay provider results from the probe development effort to identify selective inhibitors of heat shock protein 90 (HSP90): Absorbance-based cell proliferation assay in MCF7 cells.", "assay_type": "functional"}, "[12]": {"test": "Late stage assay provider results from the probe development effort to identify selective inhibitors of heat shock protein 90 (HSP90): Absorbance-based cell proliferation assay in SKBR3 cells.", "assay_type": "functional", "conditions": "SK-BR-3"}}, "note": "Active and inactive are the calls of the source.", "data": [{"smiles": "COc1ccc(S(=O)(=O)N[C@@H]2C=C[C@@H](CC(=O)N3CCC(Cc4ccccc4)CC3)O[C@H]2CO)cc1", "values": [{"measurement": "AC50", "setting": "[1]", "result": "19.9 µM (active)"}, {"measurement": "AC50", "setting": "HEK293", "result": "19.9 µM (active)"}]}, {"smiles": "C[C@H](CO)N1C[C@H](C)[C@@H](CN(C)Cc2ccc(-c3ccccc3)cc2)Oc2ccc(NC(=O)C3CC3)cc2CC1=O", "values": [{"measurement": "AC50", "setting": "Paired box protein Pax-8", "result": "26.1 µM (active)"}, {"measurement": "AC50", "setting": "[2]", "result": "> 70 µM (inactive)"}, {"measurement": "AC50", "setting": "[3]", "result": "> 70 µM (inactive)"}]}, {"smiles": "COc1ccc(C#Cc2ccc(C(=O)N3CC4CCC(O)C4C3)cc2)cc1", "note": "(stereo unspecified)", "values": [{"measurement": "IC50", "setting": "[4]", "result": 3.5, "unit": "µM"}]}, {"smiles": "COc1cc(OC)cc(C(=O)Nc2cc(Nc3cccc(Cl)c3)ncn2)c1", "values": [{"measurement": "IC50", "setting": "Protein Wnt-3a", "result": "> 21.8 µM (inactive)"}]}, {"smiles": "COC(=O)c1cc(Br)cnc1N1CCC(Nc2ccccc2)CC1", "values": [{"measurement": "IC50", "setting": "[5]", "result": "17.5 µM (inactive)"}]}, {"smiles": "CCOc1ccccc1NC(=O)c1cccc(NC(=O)c2ccccc2C)c1", "values": [{"measurement": "IC50", "setting": "[6]", "result": "4.29 µM (active)"}, {"measurement": "IC50", "setting": "[7]", "result": "0.14 µM (active)"}]}, {"smiles": "O=C(O)[C@H]1CCCC[C@H]1C(=O)N1CCc2ccccc2C1CCN1C(=O)c2ccccc2C1=O", "note": "(stereo partly specified)", "values": [{"measurement": "AC50", "setting": "[8]", "result": "> 52 µM (inactive)"}]}, {"smiles": "C[C@H](CO)N1C[C@H](C)[C@H](CN(C)Cc2ccc(C(=O)O)cc2)Oc2ccc(NC(=O)Nc3cccc4ccccc34)cc2CC1=O", "values": [{"measurement": "AC50", "setting": "[9]", "result": "21.1 µM (active)"}]}, {"smiles": "CCOc1ccccc1NC(=O)c1cccc(NC(=O)c2ccc(Cl)cc2)c1", "values": [{"measurement": "IC50", "setting": "[10]", "result": "7.24 µM (active)"}, {"measurement": "IC50", "setting": "[7]", "result": "0.139 µM (active)"}]}, {"smiles": "CC(=O)c1ccc(NC(=O)c2coc(=O)c(Br)c2)cc1", "values": [{"measurement": "IC50", "setting": "[11]", "result": "10.7 µM (inactive)"}, {"measurement": "IC50", "setting": "[12]", "result": "8.4 µM (active)"}]}]}
